Data as given in patent US7321046B2, “Analogs of dictyostatin, intermediates therefor and methods of synthesis thereof” (University of Pittsburgh, priority 2002, dated 2008).

Legend:
[1] = system: human ovarian carcinoma cells (1A9); test: Antiproliferative assay (GI50, MTS); format: cell-based; conditions: Homo sapiens, Ovarian carcinoma cell, 72 h, read-out: GI50 ± S.D., 1A9 parental cells, 72 h incubation
Procedure: (§1) Representative analogs were examined for their antiproliferative activities against human ovarian carcinoma 1A9 cells and their paclitaxel-resistant mutants, 1A9/Ptx10 and 1A9/Ptx22.
[…] Cells were maintained in RPMI medium with 10% FBS in it, plated in tissue culture plates, and allowed to grow for 48-72 h before transferring them into 96-well plates. Cells were allowed to attach and grow for 48 h in 96-well plates after which they were treated with either control (DMSO) or drug in triplicate/quadruplicate. Cells were incubated with the compounds for 72 h. Cells were treated with MTS reagent before reading the plate in a Dynamax plate reader for determining the cell number. The fifty percent growth inhibition values (GI50 values) were calculated for the compounds against all the three cell lines.

[2] = system: 1A9/Ptx10 (Phe270 −> Val) β-tubulin mutant cells; test: Antiproliferative assay (GI50, MTS), paclitaxel-resistant clone; format: cell-based, human; conditions: Homo sapiens, 1A9/ptx-10, 72 h, read-out: GI50 ± S.D., 1A9/Ptx10 (Phe270 −> Val), 72 h incubation
Procedure: as §1
(§2) The effects of dictyostatin and its analogs on growth inhibition of parental ([…]) and paclitaxel-resistant (1A9/Ptx10 and Ptx22) ovarian adenocarcinoma cell lines were evaluated following the antiproliferative assay protocol as described earlier (Minguez et al., 2003; Choy et al., 2003; Lazo et al., 2001). Cells were maintained in RPMI medium with 10% FBS in it, plated in tissue culture plates, and allowed to grow for 48-72 h before transferring them into 96-well plates. Cells were allowed to attach and grow for 48 h in 96-well plates after which they were treated with either control (DMSO) or drug in triplicate/quadruplicate. Cells were incubated with the compounds for 72 h. Cells were treated with MTS reagent before reading the plate in a Dynamax plate reader for determining the cell number. The fifty percent growth inhibition values (GI50 values) were calculated for the compounds against all the three cell lines.

[3] = system: 1A9/Ptx22 (Ala364 −> Thr) β-tubulin mutant cells; test: as above; format: cell-based, human; conditions: Homo sapiens, 1A9/ptx-22, 72 h, read-out: GI50 ± S.D., 1A9/Ptx22 (Ala364 −> Thr), 72 h incubation
Procedure: as §1, §2

[4] = system: microtubules (tubulin polymer); test: Radiolabeled ligand binding assays; conditions: test agent 4 μM; radiolabel 4.0 μM; 37° C.
Procedure: The abilities of test agents to inhibit the binding of radiolabeled forms of the microtubule stabilizers paclitaxel, discodermolide and epothilone B from tubulin polymer were determined.
[^3H]Paclitaxel, [^3H]discodermolide and [^14C]epothilone B solutions were prepared as 125 μM stock solutions in 50% DMSO. Radiolabeled compound (final concentration, 4.0 μM) and test agents at final concentrations noted in the text and tables were mixed in 50 μL of 4:1 (v/v) 0.75 M aqueous MSG/DMSO and warmed to 37° C. Meanwhile, a reaction mixture containing 0.75 M MSG, 2.5 μM tubulin, and 25 μM ddGTP was prepared and incubated at 37° C. for 30 min to form microtubuless. A 200 μL aliquot of the microtubule mixture was added to the drug mixtures, and incubation continued for 30 min at 37° C. Reaction mixtures were centrifuged in an Eppendorf 5417C centrifuge at 14,000 rpm for 20 min at room temperature. Radiolabel in the supernatants (100 μL) was determined by scintillation spectrometry.

SMILES	GI50 [1] [nM]	GI50 [2] [nM]	GI50 [3] [nM]	Percent inhibition of radiolabel from microtubules, [3H]Discodermolide [4]	Percent inhibition of radiolabel from microtubules, [3H]Paclitaxel [4]	Percent inhibition of radiolabel from microtubules, [14C]Epothilone B [4]
C=C/C=C\[C@H](C)[C@H](O)[C@@H](C)[C@H](CC[C@H](C)C[C@@H](C)[C@@H](O[Si](C)(C)C(C)(C)C)[C@@H](C)/C=C\[C@H](C[C@H](O[Si](C)(C)C(C)(C)C)[C@@H](C)/C=C/C=C\C(=O)O)O[Si](C)(C)C(C)(C)C)O[Si](C)(C)C(C)(C)C [Compound 107, (2Z,4E,6S,7S,9S,10Z,12S,13R,14R,16S,19S,20R,21S,22S,23Z)-7,9,13,19-tetrakis(tert-Butyldimethylsilyloxy)-21-hydroxy-6,12,14,16,20,22-hexamethylhexacosa-2,4,10,23,25-pentaenoic acid]	> 500	> 500	> 500			
CC(=O)O[C@@]12CO[C@@H]1C[C@H](O)[C@@]1(C)C(=O)[C@H](O)C3=C(C)[C@@H](OC(=O)[C@H](O)[C@@H](NC(=O)OC(C)(C)C)c4ccccc4)C[C@@](O)([C@@H](OC(=O)c4ccccc4)[C@H]21)C3(C)C [docetaxel]				8 ± 6 (3) %	63 ± 8 (4) %	36 ± 1 (3) %
C/C(=C\c1csc(C)n1)[C@@H]1C[C@@H]2O[C@@H]2CCC[C@H](C)[C@H](O)[C@@H](C)C(=O)C(C)(C)[C@@H](O)CC(=O)O1 [epothilone A]				6 ± 6 (3) %	53 ± 4 (4) %	25 ± 3 (3) %
C/C(=C\c1csc(C)n1)[C@@H]1C[C@@H]2O[C@]2(C)CCC[C@H](C)[C@H](O)[C@@H](C)C(=O)C(C)(C)[C@@H](O)CC(=O)O1 [epothilone B]				14 ± 3%		
